Laboratory results as given in patent US20130040982A1, “ORAL SUSTAINED RELEASE FORMULATION OF HUPERZINE A” (Yissum Research Development Company of the Hebrew …, priority 2010, published 2013).
Read-outs that look alike come from different tables or passages of the source.

How the values were obtained:
[1] = tested on: Caco-2 cells; format: in vitro ADME
Description: Caco-2 cells were obtained from ATCC (Manassas, Va., USA) and grown in 75 cm^2 flasks with approximately 0.5-1×10^6 cells per flask, at a temperature of 37° C. in a 5% CO2 atmosphere with a relative humidity of 95%. The culture growth medium consisted of Dulbecco's Modified Eagle Medium (DMEM) supplemented with 10% heat-inactivated fetal bovine serum (FBS), 1% nonessential amino acids, and 2 mM L-glutamine. The medium was replaced twice weekly. All medium supplements were obtained from Biological Industries (Beth-Haemek, Israel).
Cells in a passage range of 52-60 were seeded at a density of […] on untreated culture inserts of a polycarbonate membrane with 0.4 μm pores and a surface area of 1.1 cm^2. The culture inserts containing Caco-2 monolayers were placed in Costar® 24-Transwell plates (12 mm wells). The culture medium was changed every other day. […]
The permeability coefficient (Papp) for each compound was calculated from the linear plot of drug accumulated versus time, using the following equation: […]
Intestinal permeability towards huperzine A was evaluated using an in vitro model with Caco-2 epithelial colorectal cell culture, and using an ex-vivo animal intestine model (Ussing chamber model), as described in the Materials and Methods section. […]

[2] = tested on: intestinal tissue (duodenum, jejunum, colon); format: in vitro ADME, rat
[3] = in vivo, po, cited from earlier work
[4] = format: physicochemical; conditions: 1 μg/ml
Description: 0.5 ml of a 1 μg/ml aqueous solution of huperzine A was placed in glass tubes and heated in an oven for 30, 60 or 90 minutes. The samples were then reconstituted with double-distilled water and the amount of remaining huperzine A was determined by HPLC, as described hereinabove.

[5] = in vivo; conditions: rat, 0.5 mg/kg
Description: All surgical and experimental procedures were reviewed and approved by the Animal Experimentation Ethics Committee of the Hebrew University Hadassah Medical School, Jerusalem. Male Wistar rats (Harlan, Israel), 290-350 grams in weight, were used for all surgical procedures.
Animals were anesthetized for the period of surgery by intra-peritoneal injection of 1 ml/kg of ketamine (9%)-xylazine (1%) solution. An indwelling cannula was placed in the right jugular vein of each animal for systemic blood sampling, as described in Jiang et al. [Curr Med Chem 2003, 10:2231-2252]. The cannula was tunneled beneath the skin and exteriorized at the dorsal part of the neck. After completion of the surgical procedure, the animals were transferred to metabolic cages to recover overnight (12-18 hours). During this recovery period and throughout the experiment, food, but not water, was deprived. Animals were randomly assigned to the different experimental groups.
In order to study the pharmacokinetic parameters of huperzine A, identical doses (0.5 mg/kg) of huperzine A dissolved in water were administered to 6 animals by oral gavage needle and to 6 animals by intravenous infusion through the jugular vein cannula followed by injection of 0.2 ml of heparinized saline (50 IU/ml) to ensure the delivery of the whole dose. Systemic blood samples (400 μl) were taken 5 minutes prior to dosing, and at various time periods post-dose, as indicated. To prevent dehydration, equal volumes of physiological solution were introduced to the rats following each withdrawal of a blood sample.
Another group (4 animals) received huperzine A as an intra-peritoneal injection. The doses, the vehicle and the volume used in the intra-peritoneal administration were similar to those used in the oral administration experiments.
Absorption of huperzine A from the colon was studied using an additional experimental group (7 animals). A cannula was placed to the cecum, tunneled beneath the skin and exteriorized at the dorsal part of the neck. Following overnight recovery, the animals were dosed through the colonic cannula and the pharmacokinetic experiment was conducted. The doses, the vehicle and the volume used in the colonic administration were similar to those used in the oral administration experiments. The drug was infused over the course of 90 minutes.
Absorption of huperzine A from the duodenum was studied using another experimental group (5 animals). A cannula was placed to the duodenum, tunneled beneath the skin and exteriorized at the dorsal part of the neck. Following overnight recovery, the animals were dosed through the duodenal cannula and the pharmacokinetic experiment was conducted. […]
Huperzine A concentrations in plasma samples were determined by an HPLC assay. The area under plasma concentrations versus time curves (AUC) for huperzine A in individual rats were analyzed using WinNonlin® Professional software version 5.0.1, according to the non-compartmental analysis model, as were other pharmacokinetic parameters (elimination constant (10; elimination half-life (T1/2); peak concentration (Cmax); and time to reach peak concentration (Tmax)). The absolute bioavailability (F) of huperzine A was calculated from the ratio of the AUCs normalized by dose after oral and intravenous administration.
All tested compounds were analyzed using a Waters 2695 Separation Module HPLC system with a Waters 2475 Fluorescence Detector and a Waters 2996 Photodiode Array Detector (Waters Corporation). […]

In the case of C/C=C1\[C@H]2C=C(C)C[C@]1(N)c1ccc(=O)[nH]c1C2 [huperzine A], the “permeability coefficient (Papp)” value [1] is given as “lower than that of antipyrine, and higher than that of mannitol”, the “permeability towards huperzine A in the colon” value [2] is given as “lower than in the jejunum and duodenum, but was still significant” and the bioavailability ([3]; human) is given as 99%. For the same molecule, the half-lives ([3]; human) was 6 to 12 h, the “time to peak serum concentration” value [3] was “approximately 1 hour” and the “temperature at which degradation of huperzine A was observed” value [4] was ≥ 150 °C. For the same molecule, the bioavailability ([5]; male, Wistar) was ~50%, the half-life ([5]; male, Wistar) was ~1.67 h and the “bioavailability following colonic infusion” value ([5]; po) was “significantly lower than the bioavailability following oral bolus”. For the same molecule, the “bioavailability following duodenal infusion” value ([5]; po) was “at least as high as the bioavailability following oral bolus” and the “time of maximal plasma levels (Cmax)” value ([5]; po) was 25 to 30 min.
